Data published in ChEMBL document CHEMBL4673239, “Discovery of Tyrosine Kinase 2 (TYK2) Inhibitor (PF-06826647) for the Treatment of Autoimmune Diseases” (J Med Chem, 2020).
Converted amounts (≈) assume the structure as drawn. The source made the active and inactive calls. No cut-off for these calls is given here.

Tests used:
[1] = Apparent permeability in MDCK-II cells; type: ADME, cell-based, Canis lupus familiaris; conditions: dog
[2] = Clearance in human liver microsomes assessed per mg protein; type: ADME, Microsome; conditions: read-out: CLH
[3] = Fraction unbound in human plasma; type: ADME, cell-free
[4] = Dissociation constant, basic pKa of compound; type: physicochemical
[5] = Thermodynamic solubility of the compound at pH 7.4 using crystalline form of sample; type: physicochemical; conditions: read-out: Therm_solubility
[6] = Clearance in Sprague-Dawley rat at 1 mg/kg, iv; type: ADME, organism-based; conditions: in vivo
[7] = Volume of distribution at steady state in Sprague-Dawley rat at 1 mg/kg, iv; type: ADME, organism-based; conditions: in vivo, read-out: Vdss
[8] = AUC infinity in Sprague-Dawley rat at 1 mg/kg, iv; type: ADME, organism-based; design: time infinity, route intravenous, dose 1 mg/kg; conditions: in vivo
[9] = Oral bioavailability in Sprague-Dawley rat at 3 mg/kg using crystalline form of sample; type: ADME, organism-based; conditions: in vivo
[10] = Oral bioavailability in Sprague-Dawley rat at 30 mg/kg using crystalline form of sample; type: ADME, organism-based; conditions: in vivo
[11] = Oral bioavailability in Sprague-Dawley rat at 3 mg/kg using SDD formulation; type: ADME, organism-based; conditions: in vivo
[12] = Oral bioavailability in Sprague-Dawley rat at 30 mg/kg using SDD formulation; type: ADME, organism-based; conditions: in vivo
[13] = Cmax in Sprague-Dawley rat at 3 mg/kg, po using SDD formulation; type: ADME, organism-based; design: route oral, dose 3 mg/kg; conditions: in vivo
[14] = Cmax in Sprague-Dawley rat at 30 mg/kg, po using SDD formulation; type: ADME, organism-based; design: route oral, dose 30 mg/kg; conditions: in vivo
[15] = AUC infinity in Sprague-Dawley rat at 3 mg/kg, po using SDD formulation; type: ADME, organism-based; design: time infinity, route oral, dose 3 mg/kg; conditions: in vivo
[16] = AUC infinity in Sprague-Dawley rat at 30 mg/kg, po using SDD formulation; type: ADME, organism-based; design: time infinity, route oral, dose 30 mg/kg; conditions: in vivo
[17] = Protein binding in rat plasma; type: ADME, cell-free; conditions: read-out: PPB (converted)
[18] = Protein binding in human plasma; type: ADME, cell-free
[19] = Renal excretion in rat; type: ADME, Kidney; conditions: urine, read-out: Drug excretion
[20] = Bile excretion in rat; type: ADME; conditions: read-out: Drug excretion
[21] = Unbound drug level in imiquimod-induced mouse model of skin inflammation at 1 mg/kg, po qd; type: ADME, organism-based; conditions: in vivo
[22] = Unbound drug level in imiquimod-induced mouse model of skin inflammation at 3 mg/kg, po qd; type: ADME, organism-based; conditions: in vivo
[23] = Unbound drug level in imiquimod-induced mouse model of skin inflammation at 10 mg/kg, po qd; type: ADME, organism-based; conditions: in vivo
[24] = Unbound drug level in imiquimod-induced mouse model of skin inflammation at 30 mg/kg, po qd; type: ADME, organism-based; conditions: in vivo
Mus musculus [25] = assay: Antiinflammatory activity in imiquimod-induced mouse model of skin inflammation assessed as reduction in IL12 stimulation at 1 mg/kg, po qd; type: functional; design: scale not given: the % may be the effect or the level left
Mus musculus [26] = assay: Antiinflammatory activity in imiquimod-induced mouse model of skin inflammation assessed as reduction in IL12 stimulation at 3 mg/kg, po qd; type: functional; design: scale not given: the % may be the effect or the level left
Mus musculus [27] = assay: Antiinflammatory activity in imiquimod-induced mouse model of skin inflammation assessed as reduction in IL12 stimulation at 10 mg/kg, po qd; type: functional; design: scale not given: the % may be the effect or the level left
Mus musculus [28] = assay: Antiinflammatory activity in imiquimod-induced mouse model of skin inflammation assessed as reduction in IL12 stimulation at 30 mg/kg, po qd; type: functional; design: scale not given: the % may be the effect or the level left
Mus musculus [29] = assay: Antiinflammatory activity in imiquimod-induced mouse model of skin inflammation assessed as reduction in ear swelling at 1 mg/kg, po qd; type: functional, organism-based
Mus musculus [30] = assay: Antiinflammatory activity in imiquimod-induced mouse model of skin inflammation assessed as reduction in ear swelling at 30 mg/kg, po qd relative to control; type: functional; design: scale not given: the % may be the effect or the level left
Mus musculus [31] = assay: Antiinflammatory activity in imiquimod-induced mouse model of skin inflammation assessed as reduction in ear swelling at 10 mg/kg, po qd relative to control; type: functional; design: scale not given: the % may be the effect or the level left
Mus musculus [32] = assay: Antiinflammatory activity in imiquimod-induced mouse model of skin inflammation assessed as reduction in ear swelling at 3 mg/kg, po qd relative to control; type: functional; design: scale not given: the % may be the effect or the level left
physchem = conditions: octanol/water phosphate buffer, pH 7.4
Description: Octanol/water phosphate buffer partition coefficient, log D of compound at pH 7.4 by shake-flask method

What does the source list for `Cn1cc(-c2cn3nccc3c(-c3cnn([C@]4(CC#N)C[C@@H](C#N)C4)c3)n2)cn1` [ROPSACITINIB]?
Papp [1]: 17 ×10⁻⁶ cm/s; microsomal CLint [2]: < 8 µL/min/mg; Fu [3]: 0.38; pKa [4]: < 1.7; solubility thermodynamic [5]: 0.8 µM (≈ 0.307 µg/mL); clearance [6]: 12 mL/min/kg; Vd [7]: 1.1 L/kg; AUC(0-inf) [8]: 1380 ng·h/mL; bioavailability [9]: 15%; bioavailability [10]: 8%; bioavailability [11]: 58%; bioavailability [12]: 63%; Cmax [13]: 369 ng/mL; Cmax [14]: 2780 ng/mL; AUC(0-inf) [15]: 2390 ng·h/mL; AUC(0-inf) [16]: 25900 ng·h/mL; fraction unbound [17]: 0.82; PPB [18]: 38%; dose excreted [19]: 1.3%; dose excreted [20]: 0.9%; Drug uptake(free) [21]: 14.5 nM; Drug uptake(free) [22]: 45.7 nM; Drug uptake(free) [23]: 225 nM; Drug uptake(free) [24]: 668 nM; Activity (Mus musculus [25]): 51%; Activity (Mus musculus [26]): 77%; Activity (Mus musculus [27]): 94%; Activity (Mus musculus [28]): 98%; Activity (Mus musculus [29]): inactive; Activity (Mus musculus [30]): 46.2%; Activity (Mus musculus [31]): 34%; Activity (Mus musculus [32]): 31.3%; logD (physchem): 1.7
